3 compounds from paper PMC10265587 (European journal of medicinal chemistry, 2022) can be followed below.

For assay [1], the target named is Keap1-Nrf2 PPI (Keap1 Kelch domain / FITC-9mer Nrf2 peptide amide) (Homo sapiens, UniProt Q14145). Put plainly: Fluorescence polarization. As to conditions: FP assay, triplicates.
Assay [2] deals with Nrf2 target genes GSTM3, HMOX1, NQO1 in NCM460D cells. Kind of assay: Expression of Nrf2-ARE regulated genes by RT-qPCR in NCM460D cells. In kind it is cell-based. As to conditions: NCM460D cells, 100, 10 and 1 μM, 24 h, RT-PCR.

Entries after “also recorded” stand apart in the source; their conditions may differ.

Keap1-Nrf2 PPI (Keap1 Kelch domain / FITC-9mer Nrf2 peptide amide), sequence (Q14145 321-609 limits assumed): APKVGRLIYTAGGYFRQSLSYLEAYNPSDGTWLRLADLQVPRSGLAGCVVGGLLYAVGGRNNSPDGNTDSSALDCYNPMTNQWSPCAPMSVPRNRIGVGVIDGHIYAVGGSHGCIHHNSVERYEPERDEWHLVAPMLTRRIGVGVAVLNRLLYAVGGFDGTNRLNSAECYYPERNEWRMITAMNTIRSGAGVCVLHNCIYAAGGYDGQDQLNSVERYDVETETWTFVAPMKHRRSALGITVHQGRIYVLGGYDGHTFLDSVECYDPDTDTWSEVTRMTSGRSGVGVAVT

In turn, `COc1ccc(S(=O)(=O)N(CC(=O)O)c2ccc(N(CC(=O)O)S(=O)(=O)c3ccc(OC)cc3)c(N3CCCCC3)c2)cc1` [7b, 2-(Piperidin-1-yl)-1,4-bis(4-methoxyphenylsulfonamido)benzene-N,N'-diacetic acid] displayed an inhibition at 5 µM in assay [1] of approximately 50%.

In the case of `Cc1ccc(S(=O)(=O)N(CC(=O)O)c2ccc(N(CC(=O)O)S(=O)(=O)c3ccc(C)cc3)c(OCc3ccc(F)cc3)c2)cc1` [7v, 2-(4-Fluorobenzyloxy)-1,4-bis(4-methylphenylsulfonamido)benzene-N,N'-diacetic acid], the “transcription (mRNA levels) of Nrf2 target genes GSTM3, HMOX1 and NQO1” value in assay [2] is listed as “no effects”.

For the compound `Cc1ccc(S(=O)(=O)N(CC(=O)O)c2cc(OCc3ccc(F)cc3)c(N(CC(=O)O)S(=O)(=O)c3ccc(C)cc3)c3ccccc23)cc1` [12d, 2-(4-Fluorobenzyloxy)-1,4-bis(4-methylphenylsulfonamido)naphthalene-N,N'-diacetic acid], in assay [2], the “transcription (mRNA levels) of Nrf2 target genes GSTM3, HMOX1 and NQO1” value is “significantly increased; also recorded: effectively stimulate transcription”.
